Reference: US20240018122A1, “PYRIDAZINYL AMINO DERIVATIVES AS ALK5 INHIBITORS” (CHIESI FARMACEUTICI S.P.A., priority 2020, published 2024)
Like-named read-outs stand apart in the source and are kept apart here.

Target: human ALK5 (Homo sapiens (Human), UniProt P36897)
Experiment: ADP-GLO Kinases assay, inhibitory activity on ALK5
Type: biochemical
[1] = purified recombinant human ALK5 2.6 nM, TGFβ1 peptide substrate, 25° C, 150 min incubation, ADP-Glo detection, read-out: ALK5 IC50

Sequence of human ALK5 (P36897 80-503 limits assumed): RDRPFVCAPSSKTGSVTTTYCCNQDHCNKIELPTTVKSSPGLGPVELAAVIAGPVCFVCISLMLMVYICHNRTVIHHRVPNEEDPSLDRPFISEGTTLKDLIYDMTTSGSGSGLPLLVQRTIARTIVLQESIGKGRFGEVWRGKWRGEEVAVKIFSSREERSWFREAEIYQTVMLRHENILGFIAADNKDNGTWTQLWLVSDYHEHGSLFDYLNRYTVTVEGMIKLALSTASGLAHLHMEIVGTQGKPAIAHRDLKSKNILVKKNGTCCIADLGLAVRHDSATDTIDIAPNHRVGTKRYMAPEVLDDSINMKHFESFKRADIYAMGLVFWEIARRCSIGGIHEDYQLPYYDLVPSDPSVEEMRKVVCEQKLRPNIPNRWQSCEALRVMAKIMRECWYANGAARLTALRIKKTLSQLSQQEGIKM

Row | Structure (SMILES) | IC50 [1] [nM] | IC50 [nM]
1 | CNCCN1CCN(CCC(=O)Nc2cc(Nc3cc(-c4cc(Cl)ccc4F)nnc3C)ccn2)CC1 [Example 104, N-(4-{[6-(5-Chloro-2-Fluorophenyl)-3-Methylpyridazin-4-Yl]Amino}Pyridin-2-Yl)-3-{4-[2-(Methylamino)Ethyl]Piperazin-1-Yl}Propanamide] | < 1 | 
2 | COC(=O)N(C)CCN1CCN(CCC(=O)Nc2cc(Nc3cc(-c4cc(Cl)ccc4F)nnc3C)ccn2)CC1 [Example 105, methyl N-[2-(4-{2-[(4-{[6-(5-chloro-2-fluorophenyl)-3-methylpyridazin-4-yl]amino}pyridin-2-yl)carbamoyl]ethyl}piperazin-1-yl)ethyl]-N-methylcarbamate] | < 1 | 
3 | CNCCN1CCN(CC(=O)Nc2cc(Nc3cc(-c4cc(Cl)ccc4F)nnc3C)ccn2)CC1 [Example 106, N-(4-{[6-(5-Chloro-2-Fluorophenyl)-3-Methylpyridazin-4-Yl]Amino}Pyridin-2-Yl)-2-{4-[2-(Methylamino)Ethyl]Piperazin-1-Yl}Acetamide] | < 1 | 
4 | COC(=O)N(C)CCN1CCN(CC(=O)Nc2cc(Nc3cc(-c4cc(Cl)ccc4F)nnc3C)ccn2)CC1 [Example 107, Methyl N-[2-(4-{[(4-{[6-(5-Chloro-2-Fluorophenyl)-3-Methylpyridazin-4-Yl]Amino}Pyridin-2-Yl)Carbamoyl]Methyl}Piperazin-1-Yl)Ethyl]-N-Methylcarbamate] | < 1 | 
5 | Cc1nnc(-c2cc(Cl)ccc2F)cc1Nc1ccnc(NC(=O)CN2CCN(CCN)CC2)c1 [Example 108, 2-[4-(2-Aminoethyl)Piperazin-1-Yl]-N-(4-{[6-(5-Chloro-2-Fluorophenyl)-3-Methylpyridazin-4-Yl]Amino}Pyridin-2-Yl)Acetamide] | < 1 | 
6 | COC(=O)NCCN1CCN(CC(=O)Nc2cc(Nc3cc(-c4cc(Cl)ccc4F)nnc3C)ccn2)CC1 [Example 109, methyl N-[2-(4-{[(4-{[6-(5-chloro-2-fluorophenyl)-3-methylpyridazin-4-yl]amino}pyridin-2-yl)carbamoyl]methyl}piperazin-1-yl)ethyl]carbamate] | < 1 | 
7 | Cc1nnc(-c2cc(Cl)ccc2F)cc1Nc1ccnc(NC(=O)CCN2C[C@@H]3C[C@H]2CN3C)c1 [Example 111, N-(4-{[6-(5-Chloro-2-Fluorophenyl)-3-Methylpyridazin-4-Yl]Amino}Pyridin-2-Yl)-3-[(1S,4S)-5-Methyl-2,5-Diazabicyclo[2.2.1]Heptan-2-Yl]Propanamide] | < 1 | 
8 | O=C(Oc1ccc2c(Nc3cnnc(-c4cc(Cl)ccc4F)c3)ccnc2c1)N1CCC2(CCNCC2)C1 [Example 112, 4-{[6-(5-Chloro-2-Fluorophenyl)Pyridazin-4-Yl]Amino}Quinolin-7-Yl 2,8-Diazaspiro[4.5]Decane-2-Carboxylate] | < 1 | 
9 | COC(=O)C1CN(CCC(=O)Nc2cc(Nc3cc(-c4cc(Cl)ccc4F)nnc3C)ccn2)CCN1C(C)C (stereo not shown) [Example 113, Methyl 4-{2-[(4-{[6-(5-Chloro-2-Fluorophenyl)-3-Methylpyridazin-4-Yl]Amino}Pyridin-2-Yl)Carbamoyl]Ethyl}-1-(Propan-2-Yl)Piperazine-2-Carboxylate] | < 1 | 
10 | CN1CC2(CCN(C(=O)Oc3ccc4c(Nc5cnnc(-c6cc(Cl)ccc6F)c5)ccnc4c3)CC2)C1 [Example 114, 4-{[6-(5-Chloro-2-Fluorophenyl)Pyridazin-4-Yl]Amino}Quinolin-7-Yl 2-Methyl-2,7-Diazaspiro[3.5]Nonane-7-Carboxylate] | < 1 | 
11 | CN1CCC2(CC1)CN(C(=O)Oc1ccc3c(Nc4cnnc(-c5cc(Cl)ccc5F)c4)ccnc3c1)C2 [Example 115, 4-{[6-(5-Chloro-2-Fluorophenyl)Pyridazin-4-Yl]Amino}Quinolin-7-Yl 7-Methyl-2,7-Diazaspiro[3.5]Nonane-2-Carboxylate] | < 1 | 
12 | Cc1nnc(-c2cc(Cl)ccc2F)cc1Nc1ccnc(NC(=O)CCN2CCNC(CC(=O)O)C2)c1 (stereo not shown) [Example 116, 2-(4-{2-[(4-{[6-(5-chloro-2-fluorophenyl)-3-methylpyridazin-4-yl]amino}pyridin-2-yl)carbamoyl]ethyl}piperazin-2-yl)acetic acid] | < 1 | 
13 | Cc1nnc(-c2cc(Cl)ccc2F)cc1Nc1ccnc(NC(=O)CN2CCOCC2)c1 [Example 117, N-(4-{[6-(5-Chloro-2-Fluorophenyl)-3-Methylpyridazin-4-Yl]Amino}Pyridin-2-Yl)-2-(Morpholin-4-Yl)Acetamide] | < 1 | 
14 | CN1CCC2(CC1)CCN(C(=O)Oc1ccc3c(Nc4cnnc(-c5cc(Cl)ccc5F)c4)ccnc3c1)C2 [Example 118, 4-{[6-(5-Chloro-2-Fluorophenyl)Pyridazin-4-Yl]Amino}Quinolin-7-Yl 8-Methyl-2,8-Diazaspiro[4.5]Decane-2-Carboxylate] | < 1 | 
15 | CN1CC2(CCN(C(=O)Oc3ccc4c(Nc5cnnc(-c6cc(Cl)ccc6F)c5)ccnc4c3)C2)C1 [Example 119, 4-{[6-(5-Chloro-2-Fluorophenyl)Pyridazin-4-Yl]Amino}Quinolin-7-Yl 2-Methyl-2,6-Diazaspiro[3.4]Octane-6-Carboxylate] |  | 1 to 5
16 | Cc1nnc(-c2cc(Cl)ccc2F)cc1Nc1ccnc(NC(=O)CCN2CCSCC2)c1 [Example 120, N-(4-{[6-(5-Chloro-2-Fluorophenyl)-3-Methylpyridazin-4-Yl]Amino}Pyridin-2-Yl)-3-(Thiomorpholin-4-Yl)Propanamide] | < 1 | 
17 | Cc1nnc(-c2cc(Cl)ccc2F)cc1Nc1ccnc(NC(=O)CCN2CC3CC2CN3C)c1 (stereo not shown) [Example 121, N-(4-{[6-(5-Chloro-2-Fluorophenyl)-3-Methylpyridazin-4-Yl]Amino}Pyridin-2-Yl)-3-{5-Methyl-2,5-Diazabicyclo[2.2.1]Heptan-2-Yl}Propanamide] | < 1 | 
18 | CCOC(=O)C1CN(CCC(=O)Nc2cc(Nc3cc(-c4cc(Cl)ccc4F)nnc3C)ccn2)CCN1C (stereo not shown) [Example 122, Ethyl 4-{2-[(4-{[6-(5-Chloro-2-Fluorophenyl)-3-Methylpyridazin-4-Yl]Amino}Pyridin-2-Yl)Carbamoyl]Ethyl}-1-Methylpiperazine-2-Carboxylate] | < 1 | 
19 | Cc1nnc(-c2cc(Cl)ccc2F)cc1Nc1ccnc(NC(=O)C[N+]2([O-])CCOCC2)c1 [Example 123, 4-{[(4-{[6-(5-Chloro-2-Fluorophenyl)-3-Methylpyridazin-4-Yl]Amino}Pyridin-2-Yl)Carbamoyl]Methyl}Morpholin-4-Ium-4-Olate] | < 1 | 
20 | Cc1nnc(-c2cc(Cl)ccc2F)cc1Nc1ccnc(NC(=O)CCN2CCN(CC(F)(F)F)CC2)c1 [Example 124, N-(4-{[6-(5-Chloro-2-Fluorophenyl)-3-Methylpyridazin-4-Yl]Amino}Pyridin-2-Yl)-3-[4-(2,2,2-Trifluoroethyl)Piperazin-1-Yl]Propanamide] | < 1 | 
21 | Cc1nnc(-c2cc(Cl)ccc2F)cc1Nc1ccnc(NC(=O)CCN2CCN(C)C(C(=O)OC(C)C)C2)c1 (stereo not shown) [Example 126, Propan-2-Yl 4-{2-[(4-{[6-(5-Chloro-2-Fluorophenyl)-3-Methylpyridazin-4-Yl]Amino}Pyridin-2-Yl)Carbamoyl]Ethyl}-1-Methylpiperazine-2-Carboxylate] | < 1 | 
22 | Cc1nnc(-c2cc(Cl)ccc2F)cc1Nc1ccnc(NC(=O)CCN2CCN(C)C(C(=O)OC3CC3)C2)c1 (stereo not shown) [Example 127, Cyclopropyl 4-{2-[(4-{[6-(5-Chloro-2-Fluorophenyl)-3-Methylpyridazin-4-Yl]Amino}Pyridin-2-Yl)Carbamoyl]Ethyl}-1-Methylpiperazine-2-Carboxylate] | < 1 | 
